Experimental findings from PubChem BioAssay AID260 (DTP/NCI, 2004) are described below.

The assay has as its system CD2F1 mice, intracerebral L1210 leukemia, survival T/C. Briefly: NCI In Vivo Anticancer Drug Screen. Data for tumor model L1210 Leukemia (intracerebral) in CD2F1 (CDF1) mice. The following applies: higher = longer survival. As for the experimental part: The antitumor activity of compounds was measured in mice bearing transplantable tumors. Survival or tumor size were measured and the results are expressed as the measurement made in the treated group (T) divided by the measurement made in the vehicle treated control group (C). The tumor model used in this assay is L1210 Leukemia (intracerebral) in CD2F1 (CDF1) mice

[1] abbreviates: endpoint: median survival time, dose: 16.0 mg/kg/injection, schedule: Q01DX005 (ip), vehicle: saline with Tween-80.
Where [2] appears, read: endpoint: median survival time, dose: 32.0 mg/kg/injection, schedule: Q01DX005 (ip), vehicle: saline with Tween-80.
Where [3] appears, read: endpoint: median survival time, dose: 64.0 mg/kg/injection, schedule: Q01DX005 (ip), vehicle: saline with Tween-80.
The mark [4] stands for this setting: endpoint: median survival time, dose: 128.0 mg/kg/injection, schedule: Q01DX005 (ip), vehicle: saline with Tween-80.

Molecules are shown by their SMILES. Where “and” joins values, the source holds several entries; their conditions need not be identical. Equal entries are not always repeated. Inconclusive results and toxic doses are left out.

In the case of `CC1(C)N=C(N)N=C(N)N1c1ccc(OCc2ccc(C(=O)Nc3cccc(S(=O)(=O)F)c3)cc2)c(Cl)c1`, the T/C is 111 % of control (endpoint: mean survival time, dose: 50.0 mg/kg/injection, schedule: Q04DX003 (ip), vehicle: saline) and 111 % of control (endpoint: mean survival time, dose: 100.0 mg/kg/injection, schedule: Q04DX003 (ip), vehicle: saline).
On to `CN(CCO)C1=C(N2CC2)C(=O)C(N(C)CCO)=C(N2CC2)C1=O`, for which the T/C (endpoint: mean survival time, dose: 0.5 mg/kg/injection, schedule: Q01DX009 (ip), vehicle: saline) is 106 % of control and 109 % of control; the T/C (endpoint: mean survival time, dose: 1.0 mg/kg/injection, schedule: Q01DX009 (ip), vehicle: saline) is 111 % of control; the T/C (endpoint: mean survival time, dose: 4.0 mg/kg/injection, schedule: Q01DX009 (ip), vehicle: saline) is 101 % of control.
Regarding `CC1CCC(NC(=O)N(CCCl)N=O)CC1` (stereo not drawn), the T/C is, setting by setting: (endpoint: median survival time, dose: 4.0 mg/kg/injection, schedule: Q01DX001 (ip), vehicle: other) 123 % of control; (endpoint: median survival time, dose: 6.25 mg/kg/injection, schedule: Q01DX001 (ip), vehicle: DMSO) 116 % of control; (endpoint: median survival time, dose: 6.25 mg/kg/injection, schedule: Q01DX001 (ip), vehicle: saline + alcohol) 116 % of control; (endpoint: median survival time, dose: 6.25 mg/kg/injection, schedule: Q01DX001 (oral), vehicle: saline + alcohol) 109 % of control; (endpoint: median survival time, dose: 12.5 mg/kg/injection, schedule: Q01DX001 (ip), vehicle: DMSO) 116 % of control; (endpoint: median survival time, dose: 12.5 mg/kg/injection, schedule: Q01DX001 (ip), vehicle: saline + alcohol) 119 % of control. Further, the T/C reads like this: (endpoint: median survival time, dose: 12.5 mg/kg/injection, schedule: Q01DX001 (oral), vehicle: saline + alcohol) 109 % of control; (endpoint: median survival time, dose: 16.0 mg/kg/injection, schedule: Q01DX001 (ip), vehicle: other) 166 % of control; (endpoint: median survival time, dose: 25.0 mg/kg/injection, schedule: Q01DX001 (ip), vehicle: saline + alcohol) 166 % of control; (endpoint: median survival time, dose: 25.0 mg/kg/injection, schedule: Q01DX001 (oral), vehicle: saline + alcohol) 120 % of control; (endpoint: median survival time, dose: 32.0 mg/kg/injection, schedule: Q01DX001 (ip), vehicle: other) 333 % of control; (endpoint: median survival time, dose: 50.0 mg/kg/injection, schedule: Q01DX001 (ip), vehicle: DMSO) 123 % of control. The T/C by setting is: (endpoint: median survival time, dose: 50.0 mg/kg/injection, schedule: Q01DX001 (ip), vehicle: saline + alcohol) 155 % of control; (endpoint: median survival time, dose: 64.0 mg/kg/injection, schedule: Q01DX001 (ip), vehicle: other) 88 % of control; (endpoint: median survival time, dose: 100.0 mg/kg/injection, schedule: Q01DX001 (ip), vehicle: DMSO) 169 % of control; (endpoint: median survival time, dose: 100.0 mg/kg/injection, schedule: Q01DX001 (ip), vehicle: saline + alcohol) 92 % of control; (endpoint: median survival time, dose: 100.0 mg/kg/injection, schedule: Q01DX001 (oral), vehicle: saline + alcohol) 246 % of control.
Take `CCCCCN(C)/N=N/c1nc[nH]c1C(N)=O`: the T/C was 112 % of control under setting [1]; 122 % of control under setting [2]; 92 % of control (endpoint: median survival time, dose: 256.0 mg/kg/injection, schedule: Q01DX005 (ip), vehicle: saline with Tween-80).
For the molecule `CC[C@H]1CN2CCc3cc(OC)c(OC)cc3[C@@H]2C[C@@H]1C[C@H]1NCCc2cc(OC)c(OC)cc21`, the T/C is 98 % of control (endpoint: median survival time, dose: 2.0 mg/kg/injection, schedule: Q01DX005 (ip), vehicle: Klucel (hydroxypropylcellulose) (HPC)); 101 % of control (endpoint: median survival time, dose: 4.0 mg/kg/injection, schedule: Q01DX005 (ip), vehicle: Klucel (hydroxypropylcellulose) (HPC)); 115 % of control (endpoint: median survival time, dose: 8.0 mg/kg/injection, schedule: Q01DX005 (ip), vehicle: Klucel (hydroxypropylcellulose) (HPC)).
Consider `CC/C(=C(/CC)c1ccc(O)cc1)c1ccc(O)cc1`, for which the T/C is 104 % of control and 113 % of control (endpoint: median survival time, dose: 8.0 mg/kg/injection, schedule: Q01DX009 (ip), vehicle: saline); 93 % of control and 106 % of control under setting [1]; 104 % of control and 113 % of control (endpoint: median survival time, dose: 16.0 mg/kg/injection, schedule: Q01DX009 (ip), vehicle: saline); 93 % of control and 103 % of control under setting [2]; 98 % of control and 112 % of control (endpoint: median survival time, dose: 32.0 mg/kg/injection, schedule: Q01DX009 (ip), vehicle: saline); 103 % of control and 116 % of control under setting [3]. For the same molecule, the T/C runs as follows: (endpoint: median survival time, dose: 64.0 mg/kg/injection, schedule: Q01DX009 (ip), vehicle: saline) 105 % of control and 112 % of control; under setting [4], 103 % of control and 105 % of control; (endpoint: median survival time, dose: 256.0 mg/kg/injection, schedule: Q01DX009 (ip), vehicle: saline) 112 % of control; (endpoint: median survival time, dose: 512.0 mg/kg/injection, schedule: Q01DX009 (ip), vehicle: saline) 86 % of control.
Consider `CN(Cc1cnc2nc(N[Si](C)(C)C)nc(N[Si](C)(C)C)c2n1)c1ccc(C(=O)NC(CCC(=O)O[Si](C)(C)C)C(=O)O[Si](C)(C)C)cc1` (stereo not drawn), for which the T/C (endpoint: median survival time, dose: 1.9 mg/kg/injection, schedule: Q04DX003 (ip), vehicle: saline) is 107 % of control; the T/C (endpoint: median survival time, dose: 3.8 mg/kg/injection, schedule: Q04DX003 (ip), vehicle: saline) is 121 % of control; the T/C (endpoint: median survival time, dose: 30.0 mg/kg/injection, schedule: Q04DX003 (ip), vehicle: saline) was 150 % of control; the T/C (endpoint: median survival time, dose: 60.0 mg/kg/injection, schedule: Q04DX003 (ip), vehicle: saline) is 157 % of control.
For the molecule `O=C(O)CC(NC(=O)CP(=O)(O)O)C(=O)O` (stereo not drawn), the T/C is 100 % of control (endpoint: mean survival time, dose: 200.0 mg/kg/injection, schedule: Q01DX009 (ip), vehicle: saline); 108 % of control (endpoint: mean survival time, dose: 225.0 mg/kg/injection, schedule: Q01DX009 (ip), vehicle: saline); 101 % of control (endpoint: mean survival time, dose: 250.0 mg/kg/injection, schedule: Q01DX009 (ip), vehicle: saline).
Take `CN(C)N=Nc1ccc(C(N)=O)cc1`: the T/C was 104 % of control (endpoint: median survival time, dose: 8.0 mg/kg/injection, schedule: Q01DX005 (ip), vehicle: saline with Tween-80); 113 % of control under setting [1]; 121 % of control under setting [2]; 106 % of control under setting [4].
With `CN(C)N=Nc1cccc(C(N)=O)c1`, the T/C runs as follows: (endpoint: median survival time, dose: 10.0 mg/kg/injection, schedule: Q01DX005 (ip), vehicle: Klucel (hydroxypropylcellulose) (HPC)) 104 % of control and 112 % of control; (endpoint: median survival time, dose: 20.0 mg/kg/injection, schedule: Q01DX005 (ip), vehicle: Klucel (hydroxypropylcellulose) (HPC)) 120 % of control and 115 % of control; (endpoint: median survival time, dose: 80.0 mg/kg/injection, schedule: Q01DX005 (ip), vehicle: Klucel (hydroxypropylcellulose) (HPC)) 102 % of control and 110 % of control.
Regarding `Nc1nc(=S)c2[nH]cnc2[nH]1`, the T/C (endpoint: mean survival time, dose: 0.13 mg/kg/injection, schedule: Q01DX009 (ip), vehicle: other) was 102 % of control; the T/C (endpoint: mean survival time, dose: 0.25 mg/kg/injection, schedule: Q01DX009 (ip), vehicle: other) is 111 % of control; the T/C (endpoint: mean survival time, dose: 0.5 mg/kg/injection, schedule: Q01DX009 (ip), vehicle: other) was 108 % of control; the T/C (endpoint: mean survival time, dose: 1.0 mg/kg/injection, schedule: Q01DX009 (ip), vehicle: other) was 114 % of control.
Regarding `CN(C)N=Nc1ccc([N+](=O)[O-])cc1C(N)=O`, the T/C under setting [2] is 100 % of control, the T/C under setting [3] was 98 % of control and the T/C under setting [4] is 121 % of control.
As to `CC1CC(C)(O)CC(C(O)CC2CC(=O)NC(=O)C2)C1=O` (stereo not drawn), the T/C runs as follows: (endpoint: mean survival time, dose: 0.02 mg/kg/injection, schedule: Q01DX009 (ip), vehicle: saline) 97 % of control; (endpoint: mean survival time, dose: 0.04 mg/kg/injection, schedule: Q01DX009 (ip), vehicle: saline) 92 % of control; (endpoint: mean survival time, dose: 0.08 mg/kg/injection, schedule: Q01DX009 (ip), vehicle: saline) 110 % of control; (endpoint: mean survival time, dose: 0.16 mg/kg/injection, schedule: Q01DX009 (ip), vehicle: saline) 100 % of control; (endpoint: mean survival time, dose: 0.32 mg/kg/injection, schedule: Q01DX009 (ip), vehicle: saline) 106 % of control.
For the molecule `CN(C)c1nc(N(C)C)nc(N(C)C)n1`, the T/C (endpoint: median survival time, dose: 100.0 mg/kg/injection, schedule: Q01DX005 (ip), vehicle: saline with Tween-80) is 121 % of control; the T/C (endpoint: median survival time, dose: 100.0 mg/kg/injection, schedule: Q01DX005 (ip), vehicle: suspension in saline) is 102 % of control; the T/C (endpoint: median survival time, dose: 200.0 mg/kg/injection, schedule: Q01DX005 (ip), vehicle: saline with Tween-80) was 101 % of control; the T/C (endpoint: median survival time, dose: 200.0 mg/kg/injection, schedule: Q01DX005 (ip), vehicle: suspension in saline) was 101 % of control; the T/C (endpoint: median survival time, dose: 400.0 mg/kg/injection, schedule: Q01DX005 (ip), vehicle: suspension in saline) was 100 % of control; the T/C (endpoint: median survival time, dose: 800.0 mg/kg/injection, schedule: Q01DX005 (ip), vehicle: suspension in saline) is 118 % of control.
Take `COc1ccc(C(=O)/C(Br)=C/C(=O)O)cc1`: the T/C was 98 % of control (endpoint: median survival time, dose: 10.0 mg/kg/injection, schedule: Q01DX005 (ip), vehicle: saline); 100 % of control (endpoint: median survival time, dose: 20.0 mg/kg/injection, schedule: Q01DX005 (ip), vehicle: saline); 105 % of control (endpoint: median survival time, dose: 40.0 mg/kg/injection, schedule: Q01DX005 (ip), vehicle: saline).
